In the NIST ThermoML archive (doi:10.1021/je400968v):
Numbers after ± are expanded uncertainties.

Assay: mn = molality of the nth substance listed, in mol/kg
Details: 101 kPa, Liquid; for viscosity: Capillary tube (Ostwald / Ubbelohde) method; for mass density: Vibrating tube method

Cc1c(N)cccc1N [2,6-diaminotoluene] + CCCO
Details | mass density, 293.15 K [kg/m3] | mass density, 303.15 K [kg/m3] | mass density, 313.15 K [kg/m3] | mass density, 323.15 K [kg/m3] | mass density, 333.15 K [kg/m3] | viscosity, 293.15 K [mPa·s] | viscosity, 303.15 K [mPa·s] | viscosity, 313.15 K [mPa·s] | viscosity, 323.15 K [mPa·s] | viscosity, 333.15 K [mPa·s]
m1 = 0.0501 | 805.5 ± 0.17 | 797.18 ± 0.17 | 789 ± 0.17 | 780.63 ± 0.17 | 772.03 ± 0.18 | 2.19 ± 0.014 | 1.709 ± 0.012 | 1.348 ± 0.009 | 1.074 ± 0.008 | 0.864 ± 0.006
m1 = 0.0997 | 807.1 ± 0.17 | 798.78 ± 0.17 | 790.58 ± 0.17 | 782.21 ± 0.17 | 773.6 ± 0.18 | 2.209 ± 0.015 | 1.72 ± 0.012 | 1.355 ± 0.009 | 1.079 ± 0.008 | 0.869 ± 0.006
m1 = 0.1498 | 808.7 ± 0.17 | 800.36 ± 0.17 | 792.16 ± 0.17 | 783.77 ± 0.17 | 775.16 ± 0.18 | 2.226 ± 0.015 | 1.734 ± 0.012 | 1.365 ± 0.009 | 1.086 ± 0.008 | 0.874 ± 0.006
m1 = 0.1995 | 810.26 ± 0.17 | 801.92 ± 0.17 | 793.7 ± 0.17 | 785.32 ± 0.17 | 776.68 ± 0.18 | 2.245 ± 0.015 | 1.744 ± 0.012 | 1.372 ± 0.009 | 1.092 ± 0.008 | 0.878 ± 0.006
m1 = 0.2499 | 811.81 ± 0.17 | 803.46 ± 0.17 | 795.23 ± 0.17 | 786.83 ± 0.17 | 778.21 ± 0.18 | 2.268 ± 0.015 | 1.759 ± 0.012 | 1.383 ± 0.01 | 1.099 ± 0.008 | 0.883 ± 0.006
m1 = 0.2994 | 813.34 ± 0.17 | 804.95 ± 0.17 | 796.73 ± 0.17 | 788.33 ± 0.17 | 779.69 ± 0.18 | 2.282 ± 0.015 | 1.77 ± 0.012 | 1.391 ± 0.01 | 1.106 ± 0.008 | 0.888 ± 0.006
m1 = 0.3496 | 814.83 ± 0.17 | 806.45 ± 0.17 | 798.21 ± 0.17 | 789.79 ± 0.17 | 781.15 ± 0.17 | 2.305 ± 0.015 | 1.789 ± 0.012 | 1.401 ± 0.01 | 1.112 ± 0.008 | 0.893 ± 0.006

Cc1c(N)cccc1N [2,6-diaminotoluene] + CCO
Details | mass density, 293.15 K [kg/m3] | mass density, 303.15 K [kg/m3] | mass density, 313.15 K [kg/m3] | mass density, 323.15 K [kg/m3] | mass density, 333.15 K [kg/m3] | viscosity, 293.15 K [mPa·s] | viscosity, 303.15 K [mPa·s] | viscosity, 313.15 K [mPa·s] | viscosity, 323.15 K [mPa·s] | viscosity, 333.15 K [mPa·s]
m1 = 0.0503 | 791.34 ± 0.16 | 782.75 ± 0.16 | 773.98 ± 0.16 | 765.05 ± 0.17 | 755.93 ± 0.17 | 1.193 ± 0.008 | 0.983 ± 0.007 | 0.814 ± 0.006 | 0.68 ± 0.005 | 0.569 ± 0.004
m1 = 0.1002 | 793.1 ± 0.16 | 784.49 ± 0.16 | 775.72 ± 0.16 | 766.78 ± 0.17 | 757.66 ± 0.17 | 1.206 ± 0.008 | 0.991 ± 0.007 | 0.823 ± 0.006 | 0.686 ± 0.005 | 0.573 ± 0.004
m1 = 0.1497 | 794.82 ± 0.16 | 786.2 ± 0.16 | 777.43 ± 0.16 | 768.49 ± 0.17 | 759.36 ± 0.17 | 1.221 ± 0.008 | 1.002 ± 0.007 | 0.829 ± 0.006 | 0.69 ± 0.005 | 0.578 ± 0.004
m1 = 0.1996 | 796.54 ± 0.16 | 787.9 ± 0.16 | 779.12 ± 0.16 | 770.18 ± 0.17 | 761.05 ± 0.17 | 1.233 ± 0.008 | 1.011 ± 0.007 | 0.835 ± 0.006 | 0.696 ± 0.005 | 0.582 ± 0.004
m1 = 0.2496 | 798.23 ± 0.16 | 789.59 ± 0.16 | 780.81 ± 0.16 | 771.86 ± 0.17 | 762.72 ± 0.17 | 1.245 ± 0.008 | 1.021 ± 0.007 | 0.843 ± 0.006 | 0.7 ± 0.005 | 0.586 ± 0.004
m1 = 0.2997 | 799.92 ± 0.16 | 791.26 ± 0.16 | 782.49 ± 0.16 | 773.53 ± 0.16 | 764.4 ± 0.17 | 1.258 ± 0.008 | 1.03 ± 0.007 | 0.849 ± 0.006 | 0.707 ± 0.005 | 0.591 ± 0.004
m1 = 0.3496 | 801.55 ± 0.16 | 792.9 ± 0.16 | 784.13 ± 0.16 | 775.18 ± 0.16 | 766.04 ± 0.17 | 1.272 ± 0.008 | 1.04 ± 0.007 | 0.857 ± 0.006 | 0.711 ± 0.005 | 0.595 ± 0.004
m1 = 0.3995 | 803.2 ± 0.16 | 794.53 ± 0.16 | 785.77 ± 0.16 | 776.81 ± 0.16 | 767.67 ± 0.17 | 1.286 ± 0.008 | 1.05 ± 0.007 | 0.864 ± 0.006 | 0.718 ± 0.005 | 0.6 ± 0.004
m1 = 0.4497 | 804.84 ± 0.16 | 796.16 ± 0.16 | 787.4 ± 0.16 | 778.43 ± 0.16 | 769.3 ± 0.17 | 1.3 ± 0.008 | 1.061 ± 0.007 | 0.872 ± 0.006 | 0.723 ± 0.005 | 0.604 ± 0.004
m1 = 0.4995 | 806.45 ± 0.16 | 797.75 ± 0.16 | 789 ± 0.16 | 780.03 ± 0.16 | 770.89 ± 0.17 | 1.313 ± 0.008 | 1.07 ± 0.007 | 0.879 ± 0.006 | 0.731 ± 0.005 | 0.609 ± 0.004
m1 = 0.5495 | 808.02 ± 0.16 | 799.33 ± 0.16 | 790.56 ± 0.16 | 781.61 ± 0.16 | 772.46 ± 0.17 | 1.328 ± 0.009 | 1.08 ± 0.007 | 0.888 ± 0.006 | 0.736 ± 0.005 | 0.613 ± 0.004
m1 = 0.5995 | 809.61 ± 0.16 | 800.9 ± 0.16 | 792.14 ± 0.16 | 783.18 ± 0.16 | 774.03 ± 0.17 | 1.342 ± 0.009 | 1.09 ± 0.007 | 0.895 ± 0.006 | 0.742 ± 0.005 | 0.618 ± 0.004
m1 = 0.6492 | 811.1 ± 0.16 | 802.44 ± 0.16 | 793.67 ± 0.16 | 784.72 ± 0.16 | 775.55 ± 0.16 | 1.357 ± 0.009 | 1.102 ± 0.007 | 0.903 ± 0.006 | 0.746 ± 0.005 | 0.622 ± 0.004
m1 = 0.6984 | 812.63 ± 0.16 | 803.98 ± 0.16 | 795.19 ± 0.16 | 786.23 ± 0.16 | 777.07 ± 0.16 | 1.372 ± 0.009 | 1.112 ± 0.007 | 0.91 ± 0.006 | 0.753 ± 0.005 | 0.626 ± 0.004
m1 = 0.7488 | 814.15 ± 0.15 | 805.51 ± 0.16 | 796.73 ± 0.16 | 787.77 ± 0.16 | 778.61 ± 0.16 | 1.389 ± 0.009 | 1.124 ± 0.007 | 0.919 ± 0.006 | 0.758 ± 0.005 | 0.631 ± 0.005
m1 = 0.7991 | 815.68 ± 0.15 | 807.02 ± 0.16 | 798.25 ± 0.16 | 789.3 ± 0.16 | 780.13 ± 0.16 | 1.408 ± 0.009 | 1.134 ± 0.008 | 0.926 ± 0.006 | 0.762 ± 0.005 | 0.636 ± 0.005
